This note sets out measurements from PubChem BioAssay AID504777 (National Center for Advancing Translational Sciences (NCATS), 2011).

The structures appear in SMILES notation.

For the data set, the system named is mouse liver microsomes without NADPH, LC-MS/MS. Put plainly: Enhancers of SMN2 Splice Variant Expression: Metabolic Stability in absence of NADPH Profiling. As to conditions: at 1 µM; hits give high values. An excerpt:
Spinal muscular atrophy (SMA) is caused by insufficient levels of the survival motor neuron protein SMN. The SMN locus on chromosome 5q13 contains two inverted copies of SMN called SMN1 and SMN2 which are 99% identical at the amino acid level. SMN1 is a fully functional protein and SMN2 skips exon 7 90% of the time. Skipping of exon 7 produces non-functional protein product. 10% of the SMN2 protein includes exon 7 and is fully functional. In the SMA disease state, mutations in the SMN1 locus are the cause of the disease state. Because only 10% of SMN2 is of the fully functional form, it is not sufficient to overcome the deficiency produced by the loss of the SMN1 product. A therapy that either increase the amount of SMN2 product made or to increase the inclusion of exon 7 has been proposed for the treatment of SMA. Mouse liver microsomes are generated from lysed mouse liver. Liver microsomes contain many drug metabolizing enzymes, including Cytochome P-450s and flavin-containing monooxygenases. Because drug metabolism is major way of drug clearance, this is an important result. NIH Chemical Genomics Center [NCGC] NIH Molecular Libraries Probe Production centers Network [MLPCN] MLPCN Grant: R03 MH084179-01 Assay Submitter (PI): Elliot Androphy
1uM of compound in incubated in mouse liver microsome; the reference compound is ketanserin. […] Samples are analyzed with LC-MS/MS.

For the compound `O=C(O)C1CCN(c2nc(-c3ccc(Br)cc3)cs2)CC1`, the percent remaining was 95%.
